Experimental findings from PubChem BioAssay (NCI) are described below.

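Test compounds were applied to cells in 96-well plates for 48 hours at 5 doses. GI50 marks 50% less growth. TGI: total growth inhibition.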

Experiment in all cases: DTP human tumour cell line panel, 48 h
Test [1] deals with HT29 colon.
Test [2] concerns SF-539 CNS.
In test [3] the test system is MOLT-4 leukemia.
Test [4] has as its system HCC-2998 colon.
In test [5] the test system is SW-620 colon.
Test [6] deals with SF-268 CNS.
The subject of test [7] is SK-MEL-5 melanoma.
For test [8], the system named is MDA-MB-231 breast.
Test [9] deals with NCI/ADR-RES ovarian.
The subject of test [10] is MDA-MB-435.

In the case of `O=C(NC(=Nc1ccccc1)SCSC(=Nc1ccccc1)NC(=O)c1ccco1)c1ccco1`, the TGI (usually the concentration at which net growth stops) was greater than 100 µM in test [1]; 59.1 µM in test [2]; greater than 100 µM in [3]; greater than 100 µM in test [4]; greater than 100 µM in test [5]; greater than 100 µM in test [6]. In test [7], this compound showed a TGI greater than 100 µM.

Take `CCc1ccccc1NC(=O)C(=O)C(C#N)c1ccccc1Cl` (centres undefined): the TGI in test [1], in test [3], in test [4], in test [5], in test [6] and in test [7] was greater than 100 µM each time.

`O=C1C=C(Nc2ccccc2C(=O)CC(=O)C(=O)Nc2ccc(Cl)cc2)c2ccccc2C1=O`: the concentration for total growth inhibition (TGI) is greater than 100 µM in test [1]; 50.2 µM in test [2]; greater than 38.5 µM in test [3]; 35.8 µM in test [4]; 27 µM in [5]; 57.5 µM in test [6]. Moreover, the TGI in [7] was determined as 15.4 µM.

In the case of `Cc1ccc(C)c2c1C(=O)N(c1ccc(F)cc1F)C2=O`, the GI50 (in general, the concentration giving 50% growth inhibition) in [1] was greater than 100 µM; in test [8], 22.9 µM; in [2], greater than 100 µM; in test [3] it was greater than 100 µM; in test [9], greater than 100 µM; in [10], greater than 100 µM. In addition, the GI50 in [5] and in test [6] was greater than 100 µM in each case. The TGI in [1], in [8], in [2], in test [3], in [9] and in [10] was greater than 100 µM in each case. For the same compound, the TGI in [5] and in [6] was greater than 100 µM throughout.

`O=C(COc1ccccc1Cl)N1N=C(c2ccccc2)CC1(O)c1ccccc1` (centres undefined): the TGI in test [1] is 30.7 µM; in test [2] it was 34.2 µM; in test [3], 58.8 µM; in [4], 33.6 µM; in test [5], 79.1 µM; in [6], greater than 100 µM.

As to `O=C1/C(=C/c2ccc([N+](=O)[O-])s2)Oc2cc(Cl)ccc21`, the 50% growth inhibitory concentration (GI50) in test [8] was 0.404 µM; in [9], 3.02 µM; in [5], 0.217 µM; in [7], 1.2 µM. Further, the TGI in [8] is 1.75 µM; in [9] it was greater than 100 µM; in test [5], 0.524 µM; in [7] it was 2.57 µM.

For `COc1ccc(Nc2nc3cc(C(F)(F)F)ccc3nc2-c2ccccc2)cc1OC`, the TGI in test [1], in test [2], in test [3], in test [4], in test [5] and in test [6] was greater than 100 µM throughout. In [7], the concentration for total growth inhibition (TGI) is greater than 100 µM.

In the case of `c1ccc2c(c1)SC(=C1Sc3ccccc3S1)S2`, the TGI in test [1], in [3], in [4], in test [5] and in [6] was greater than 100 µM each time.

For `OCC1OC2c3ccccc3COC2C1OCc1ccccc1` (centres undefined), the TGI in [1], in test [3], in test [4], in test [5] and in [7] was greater than 100 µM each time.

As to `O=C1C(=c2ccc(=C3C(=O)c4ccc([N+](=O)[O-])cc4[N+]3=O)cc2)N([O-])c2cc([N+](=O)[O-])ccc21`, the GI50 in test [1], in test [2], in [3], in [4], in test [5] and in test [7] was greater than 100 µM each time. Besides, the concentration for total growth inhibition (TGI) in test [1], in test [2], in test [3], in test [4], in test [5] and in [7] was greater than 100 µM in each case.

With `[O-]/N=[N+](/[O-])C1CCCCC1=[N+]1CCOCC1` (centres undefined), the TGI in [1], in [3], in test [5] and in test [6] was greater than 100 µM each time.

`CNC(=O)c1nn(C)c2c1C(C)(C)Cc1cnc(Nc3cccc(N4CCN(C)CC4)c3)nc1-2`: the GI50 is 0.524 µM in test [1]; 0.406 µM in [2]; 0.236 µM in test [3]; 2.1 µM in test [9]; 0.335 µM in [10]; 0.83 µM in test [4]. Besides, the GI50 in test [5] is 0.287 µM; in [6], 0.931 µM; in test [7] it was 0.954 µM. Also, the total growth inhibition concentration (TGI) in test [1] is greater than 35 µM; in test [2], 3.06 µM; in test [3], 10.6 µM; in test [9] it was greater than 48.8 µM; in test [10] it was 11.8 µM; in [4], 14.9 µM. The TGI in [5] was determined as 22.4 µM; in test [6] it was 9.36 µM; in test [7], 5.46 µM.

As for `COc1cccc(C=O)c1C(=O)c1cc(O)ccc1O`, the TGI in test [1] was greater than 76.3 µM; in test [2] it was greater than 100 µM; in test [3], 27.5 µM; in test [4] it was greater than 100 µM; in [5], 33.2 µM; in test [6], greater than 55.4 µM. The compound also returned a TGI in [7] greater than 100 µM.

Turning to `C/C(=N\NC(=S)N1CCN(c2ccccn2)CC1)c1ccccn1`, the GI50 in [1] was less than 0.0192 µM; in test [2] it was 0.0272 µM; in test [4] it was 0.252 µM; in test [7] it was 0.0688 µM. The TGI in test [1] came to 16 µM; in test [8], 18.5 µM; in test [2], 8.02 µM; in test [3], 2.66 µM; in test [10], 12.3 µM; in test [4] it was 15.3 µM. The concentration for total growth inhibition (TGI) in test [5] was determined as 16.2 µM; in test [6], 14.2 µM; in test [7], 13.5 µM.

Take `Cc1cc(=O)[nH]c(CNC(=O)c2ccc3ccccc3c2)n1`: the TGI in [1], in test [2], in [3], in test [4], in [5] and in test [6] was greater than 100 µM in each case. Moreover, the TGI in [7] was greater than 100 µM.

For the compound `O=[N+]([O-])c1cc(-c2nc(=S)[nH][nH]2)ccc1O`, the TGI in test [1] is greater than 100 µM; in test [2] it was greater than 100 µM; in test [4], greater than 100 µM; in test [5], 18.4 µM; in test [6], greater than 100 µM; in test [7], greater than 100 µM.

For `COc1ccc2c(c1)[n+]([O-])c(-c1cccc(Cl)c1)c(N)[n+]2[O-]`, the TGI in [1] is greater than 100 µM; in test [2] it was greater than 100 µM; in test [3], greater than 100 µM; in [5] it was greater than 100 µM; in [6], greater than 100 µM; in test [7], 39.5 µM.

On to `O=C(O)CN(c1ccccc1)S(=O)(=O)c1cccc([N+](=O)[O-])c1`, for which the TGI in [1], in test [2], in [3], in test [5], in test [6] and in test [7] was greater than 100 µM throughout.

On to `COc1cc2c3c(n(CCCN(CCCN(CCCn4c5c(c6ccccc6c4=O)C(=O)c4ccccc4-5)C(=O)OC(C)(C)C)C(=O)OC(C)(C)C)c(=O)c2cc1OC)-c1cc2c(cc1C3=O)OCO2`, for which the GI50 in test [1] is greater than 100 µM; in test [8] it was 28.5 µM; in [3] it was greater than 100 µM; in test [9] it was greater than 100 µM; in test [10], greater than 100 µM; in test [5], greater than 100 µM. The GI50 in [6] and in test [7] was greater than 100 µM each time. Moreover, the total growth inhibition concentration (TGI) in [1], in [8], in [3], in test [9], in test [10] and in [5] was greater than 100 µM in each case. Moreover, the TGI in test [6] and in test [7] was greater than 100 µM throughout.

Take `O=C(C=Nc1ccccc1C(=O)[O-])c1cccs1.O=C(C=Nc1ccccc1C(=O)[O-])c1cccs1.[Ni+2]`: the TGI in test [1], in [2], in test [3], in test [4], in test [5] and in [6] was greater than 100 µM in each case.

In the case of `CC1CCC2C(C)C(=O)OC3OC4(C)CCC1C32OO4` (centres undefined), the GI50 in test [1] and in test [5] was greater than 100 µM throughout. Further, the TGI in test [1], in test [8], in [2], in test [3], in [4] and in test [5] was greater than 100 µM throughout. The TGI in test [6] and in test [7] was greater than 100 µM in each case.

For `COC(=O)C1CSC(c2csc(CCN)n2)=N1` (centres undefined), the TGI in test [1], in test [3], in [4], in test [5] and in test [7] was greater than 100 µM each time.

`CC(=O)c1ccccc1NC(=O)C(=O)C(C(=O)c1ccc2ccccc2c1)C1OC(=O)c2ccccc21` (centres undefined): the TGI in [1] is 92.4 µM; in test [2], 22.1 µM; in test [3], greater than 100 µM; in test [4] it was 18.3 µM; in test [5], 40.6 µM; in [6], 51 µM. Besides, the TGI in [7] came to 24.4 µM.

Take `CN1C(=O)CC2(C)c3cc(O)cc(Br)c3N(C)C12` (centres undefined): the TGI in test [1], in [2], in [3], in [4], in [5] and in [6] was greater than 100 µM each time. The same compound came in with a TGI in test [7] greater than 100 µM.

With `Nc1nc(N)c(CCCCc2ccccc2)c(C=O)n1`, the TGI came out at 26.5 µM in test [1]; 36.3 µM in test [2]; 76.6 µM in [4]; 30.9 µM in [5]; 43.3 µM in test [6]; 34.9 µM in [7].

Turning to `NC1N=Nc2ccccc21` (centres undefined), the TGI in test [1], in test [2], in [3], in test [4], in [5] and in test [6] was greater than 100 µM throughout.

Consider `COC(=O)[C@H](CC(C)C)NC(=O)[C@H](Cc1ccccc1)N1CC2C=CC1C2` (some centres undefined), for which the TGI in [1], in test [2], in test [3], in test [4], in [5] and in test [6] was greater than 100 µM throughout. In test [7], this compound displayed a TGI greater than 100 µM.

Consider `COC(=O)Cc1c([C@@]2(C)CCCC(C)(C)C2)ccc2c1C(=O)OC2`, for which the TGI in test [1] was 28.4 µM; in test [2] it was 31.6 µM; in test [3] it was 18.2 µM; in test [5] it was greater than 100 µM; in [7], 25.6 µM.

Regarding `CC1(C)NC(=O)N(CCCCCCN2C(=O)NC(C)(C)C2=O)C1=O`, the concentration for total growth inhibition (TGI) in test [1], in test [3], in test [4], in test [5] and in [6] was greater than 100 µM in each case.

Consider `COc1cc(-c2cc3ncccc3c3nc(OCCN(C)C)c4cccnc4c23)cc(OC)c1OC`, for which the GI50 in test [1] was 0.383 µM; in test [2], 0.741 µM; in test [3], 0.314 µM; in [9] it was 0.383 µM; in [10], 0.671 µM; in test [4] it was 0.727 µM. In addition, the figures for the GI50 in test [5], in [6] and in [7] were 0.324 µM, 0.637 µM and 0.468 µM, respectively. For the same compound, the TGI in [1] is greater than 100 µM; in test [2] it was 3.39 µM; in test [3] it was 2.71 µM; in [9], 2.1 µM; in [10], 3.75 µM; in test [4], 3.1 µM. Besides, the results for the total growth inhibition concentration (TGI) in test [5], in test [6] and in [7] were 15.2 µM, 11 µM and 1.96 µM, respectively.
